Assay results: US20240158446A1, “CYCLIC COMPOUND HAVING SELECTIVE INHIBITORY ACTION ON KRAS OVER HRAS AND NRAS” (CHUGAI SEIYAKU KABUSHIKI KAISHA, priority 2021, published 2024)
pKd: −log10 of the molar value. *1 amine or outer side, *2 acyl side, *3 side chain or, on linkers, in order; H or OH if unused. Where a SMILES comes first, the peptide text is derived from it. Bridges are numbered along the chain shown (N, C = ends). [ ]: non-standard residue; d: D form. The star is where a group is joined. hPhe(3-Cl-4-CF3) = N[C@@H](CCc1ccc(C(F)(F)F)c(Cl)c1)C(=O)O; NPrPhe(4-CF3) = CCCN[C@@H](Cc1ccc(C(F)(F)F)cc1)C(=O)O; X4 = CCCN([C@@H](CC(C)C)C(=O)[*:2])[*:1]; NMeGly(cPent) = CN[C@H](C(=O)O)C1CCCC1; NMeD = CN[C@@H](CC(=O)O)C(=O)O; NMeL = CN[C@@H](CC(C)C)C(=O)O; Morpholide = C1CN(*)CCO1; Piperidide = C1CCN(*)CC1; Ac4c = NC1(C(=O)O)CCC1; Sar = CNCC(=O)O

Legend:
[1] = biological target: GDP-bound KRAS wild-type protein (Homo sapiens, UniProt P01116); assay: Binding to KRAS by surface plasmon resonance (SPR), Single Cycle Kinetics; conditions: SPR, Single Cycle Kinetics, GDP-bound KRAS wild-type protein; read-out: KRAS KD
[2] = biological target: GDP-bound NRAS wild-type protein (Homo sapiens, UniProt P01111); assay: Binding to NRAS by surface plasmon resonance (SPR), Single Cycle Kinetics; conditions: ratio of KD for GDP-bound NRAS wild-type protein to KD for KRAS, SPR
[3] = biological target: GDP-bound HRAS wild-type protein (Homo sapiens, UniProt P01112); assay: Binding to HRAS by surface plasmon resonance (SPR), Single Cycle Kinetics; conditions: ratio of KD for GDP-bound HRAS wild-type protein to KD for KRAS, SPR
[4] = system: human lung cancer strain NCI-H441; assay: cells; conditions: NCI-H441, 96 h, read-out: NCI-H441 IC50 (nM), NCI-H441 cell proliferation, 4 days, CellTiter-Glo;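 also: cell proliferation inhibition after four days measured by CellTiter-Glo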

GDP-bound KRAS wild-type protein, sequence (P01116 whole entry): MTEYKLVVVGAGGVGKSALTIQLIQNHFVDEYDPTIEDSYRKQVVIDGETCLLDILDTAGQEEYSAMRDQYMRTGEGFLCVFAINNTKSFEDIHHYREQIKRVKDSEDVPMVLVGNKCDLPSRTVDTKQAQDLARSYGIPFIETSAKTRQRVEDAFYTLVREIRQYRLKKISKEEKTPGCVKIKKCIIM
GDP-bound HRAS wild-type protein, sequence (P01112 whole entry): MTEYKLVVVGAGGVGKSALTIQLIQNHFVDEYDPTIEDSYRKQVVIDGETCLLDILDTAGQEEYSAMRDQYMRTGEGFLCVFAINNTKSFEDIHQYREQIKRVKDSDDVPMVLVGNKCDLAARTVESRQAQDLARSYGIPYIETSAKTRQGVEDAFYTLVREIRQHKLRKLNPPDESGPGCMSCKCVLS
GDP-bound NRAS wild-type protein, sequence (P01111 whole entry): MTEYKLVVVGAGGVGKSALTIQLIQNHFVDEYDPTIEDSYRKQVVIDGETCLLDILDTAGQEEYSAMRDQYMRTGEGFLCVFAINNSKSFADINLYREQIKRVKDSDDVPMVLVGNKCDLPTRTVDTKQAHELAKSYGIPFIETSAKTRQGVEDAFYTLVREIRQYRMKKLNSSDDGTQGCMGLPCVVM

| SMILES | pKd [1] | IC50 [4] [nM] | NRAS/KRAS (KD ratio) [2] | HRAS/KRAS (KD ratio) [3] |
| --- | --- | --- | --- | --- |
| C#CC[C@H]1C(=O)N[C@@H]([C@@H](C)CC)C(=O)N(C)CC(=O)N(C)[C@H]2C/C=C\CCN(C2=O)[C@@H](Cc2ccc(C(F)(F)F)cc2)C(=O)N(C)CC(=O)N[C@@H](CCc2cc(F)c(C(F)(F)F)c(F)c2)C(=O)N2C[C@H](OCC)C[C@H]2C(=O)NC2(CCC2)C(=O)N(C)[C@@H](C2CCCC2)C(=O)N(C)[C@H](C(=O)N(C)CCC)CC(=O)N1C [PP1703] | 9.89 | 7.2 | A (a compound having 10 or more and less than 20 is denoted as A) | A (a compound having 10 or more and less than 20 is denoted as A) |
| CCCN1C(=O)CN(C)C(=O)CN(C)C(=O)[C@H]([C@@H](C)CC)NC(=O)[C@H](CC(C)C)N(C)C(=O)C[C@@H](C(=O)N2CCCCC2)N(C)C(=O)[C@H](C2CCCC2)N(C)C(=O)C2(CCC2)NC(=O)[C@@H]2CCCN2C(=O)[C@H](CCc2ccc(C(F)(F)F)c(Cl)c2)NC(=O)CN(C)C(=O)[C@@H]1Cc1ccc(C(F)(F)F)cc1 [PP1930] ([NMeL]I[Sar][Sar][NPrPhe(4-CF3)][Sar][hPhe(3-Cl-4-CF3)]P[Ac4c][NMeGly(cPent)][NMeD]-Piperidide; lactam N-11) | 9.64 | 7 | B (a compound having 3 or more and less than 10 is denoted as B) | C (A compound having a KD ratio of 0.1 or more and less than 3 is denoted as C) |
| CCO[C@@H]1C[C@H]2C(=O)NC3(CCC3)C(=O)N(C)[C@@H](C(CC)CC)C(=O)N(C)[C@H](CC)CC(=O)N(C)[C@@H](CC)C(=O)N[C@@H]([C@@H](C)CC)C(=O)N(C)CC(=O)N(C)[C@H]3C/C=C\CCN(C3=O)[C@@H](Cc3ccc(C(F)(F)F)cc3)C(=O)N(C)CC(=O)N[C@@H](CCc3cc(F)c(C(F)(F)F)c(F)c3)C(=O)N2C1 [PP1624] | 8.96 | 55.8 | A (a compound having 10 or more and less than 20 is denoted as A) | A (a compound having 10 or more and less than 20 is denoted as A) |
| CC[C@H](C)[C@@H]1NC(=O)[C@H](CC)N(C)C(=O)C[C@@H](C(=O)N(C)C)N(C)C(=O)[C@H](C2CCCC2)N(C)C(=O)C2(CCC2)N(C)C(=O)[C@@H]2C[C@@H](C)CN2C(=O)[C@H](CCc2cc(F)c(C(F)(F)F)c(F)c2)NC(=O)CN(C)C(=O)[C@H](Cc2ccc(C)cc2)N2CC/C=C\C[C@@H](C2=O)N(C)C(=O)[C@@H]2CCCN2C1=O [PP1789] | 9.89 | 9.5 | A (a compound having 10 or more and less than 20 is denoted as A) | A (a compound having 10 or more and less than 20 is denoted as A) |
| CCCN1C(=O)C[C@@H](C(=O)N2CCOCC2)N(C)C(=O)[C@H](C2CCCC2)N(C)C(=O)C2(CCC2)NC(=O)[C@@H]2CCCN2C(=O)[C@H](CCc2ccc(C(F)(F)F)c(Cl)c2)NC(=O)CN(C)C(=O)[C@H](Cc2ccc(C(F)(F)F)cc2)N(CCC)C(=O)CN(C)C(=O)CN(C)C(=O)[C@H](C(C)C)NC(=O)[C@@H]1CC(C)C [PP1815] ([X4]V[Sar][Sar][NPrPhe(4-CF3)][Sar][hPhe(3-Cl-4-CF3)]P[Ac4c][NMeGly(cPent)][NMeD]-Morpholide; lactam N-11) | 9.47 | 83 | B (a compound having 3 or more and less than 10 is denoted as B) | B (a compound having 3 or more and less than 10 is denoted as B) |
| CCO[C@@H]1C[C@H]2C(=O)NC3(CC(C)(C)C3)C(=O)N(C)[C@@H](C3CCCC3)C(=O)N(C)[C@H](C(=O)N(C)C)CC(=O)N3CCCCC[C@H]3C(=O)N[C@@H]([C@@H](C)CC)C(=O)N(C)CC(=O)N(C)[C@H]3C/C=C\CCN(C3=O)[C@@H](Cc3ccc(C(F)(F)F)cc3)C(=O)N(C)CC(=O)N[C@@H](CCc3cc(F)c(C(F)(F)F)c(F)c3)C(=O)N2C1 [PP1915] | 9.51 | 18.5 | A (a compound having 10 or more and less than 20 is denoted as A) | A (a compound having 10 or more and less than 20 is denoted as A) |
| CCCN(C)C(=O)[C@@H]1CC(=O)N(C)[C@@H](COC)C(=O)N[C@@H]([C@@H](C)CC)C(=O)N(C)CC(=O)N(C)[C@H]2C/C=C\CCN(C2=O)[C@@H](Cc2ccc(C(F)(F)F)cc2)C(=O)N(C)CC(=O)N[C@@H](CCc2cc(F)c(C(F)(F)F)c(F)c2)C(=O)N2CCC[C@H]2C(=O)NC2(CC(C)(C)C2)C(=O)N(C)[C@@H](C2CCCC2)C(=O)N1C [PP1729] | 9.70 | 20.6 | AA (a compound having 20 or more is denoted as AA) | A (a compound having 10 or more and less than 20 is denoted as A) |

Now those with a higher pKd [1], led by results:

| pKd [1] | IC50 [4] [nM] | SMILES | NRAS/KRAS (KD ratio) [2] | HRAS/KRAS (KD ratio) [3] |
| --- | --- | --- | --- | --- |
| 9.96 | 11.1 | CCCOC[C@H]1C(=O)N[C@@H]([C@@H](C)CC)C(=O)N(C)CC(=O)N(C)[C@H]2C/C=C\CCN(C2=O)[C@@H](Cc2ccc(C(F)(F)F)cc2)C(=O)N(C)CC(=O)N[C@@H](CCc2cc(F)c(Cl)c(F)c2)C(=O)N2C[C@H](OCC)C[C@H]2C(=O)NC2(CC(C)(C)C2)C(=O)N(C)[C@@H](C2CCCC2)C(=O)N(C)[C@H](C(=O)N(C)C)CC(=O)N1C [PP1764] | AA (a compound having 20 or more is denoted as AA) | A (a compound having 10 or more and less than 20 is denoted as A) |
| 10.25 | 3.5 | CCO[C@@H]1C[C@H]2C(=O)N(C)C3(CCCC3)C(=O)N(C)[C@@H](C3CCCC3)C(=O)N(C)[C@H](C(=O)N(C)C)CC(=O)N(C)[C@@H](CC)C(=O)N[C@@H]([C@@H](C)CC)C(=O)N(C)CC(=O)N(C)[C@H]3C/C=C\CCN(C3=O)[C@@H](Cc3ccc(C(F)(F)F)cc3)C(=O)N(C)CC(=O)N[C@@H](CCc3cc(F)c(C(F)(F)F)c(F)c3)C(=O)N2C1 [PP1804] | A (a compound having 10 or more and less than 20 is denoted as A) | A (a compound having 10 or more and less than 20 is denoted as A) |
| 10.43 | 7.4 | CC[C@H](C)[C@@H]1NC(=O)[C@H](C)N(C)C(=O)C[C@@H](C(=O)N(C)C)N(C)C(=O)[C@H](C2CCCC2)N(C)C(=O)C2(CC(C)(C)C2)NC(=O)[C@@H]2CC(F)(F)CN2C(=O)[C@H](CCc2cc(F)c(C(F)(F)F)c(F)c2)NC(=O)CN(C)C(=O)[C@H](Cc2ccc(C(F)(F)F)cc2)N2CC/C=C\C[C@@H](C2=O)N(C)C(=O)CN(C)C1=O [PP1707] | AA (a compound having 20 or more is denoted as AA) | A (a compound having 10 or more and less than 20 is denoted as A) |
| 10.18 | 3.1 | CCCN(C)C(=O)[C@@H]1CC(=O)N(C)[C@@H](CC2CC2)C(=O)N[C@@H]([C@@H](C)CC)C(=O)N(C)CC(=O)N(C)[C@H]2C/C=C\CCN(C2=O)[C@@H](Cc2ccc(C(F)(F)F)cc2)C(=O)N(C)CC(=O)N[C@@H](CCc2cc(F)c(C(F)(F)F)c(F)c2)C(=O)N2C[C@H](F)C[C@H]2C(=O)NC2(CC(C)(C)C2)C(=O)N(C)[C@@H](C2CCCC2)C(=O)N1C [PP1665] | AA (a compound having 20 or more is denoted as AA) | A (a compound having 10 or more and less than 20 is denoted as A) |
| 10.41 | 3.3 | CCO[C@@H]1C[C@H]2C(=O)NC3(CC(C)(C)C3)C(=O)N(C)[C@@H](C3CCCC3)C(=O)N(C)[C@H](C(=O)N(C)C)CC(=O)N(C)[C@@H](CC3CC3)C(=O)N[C@@H]([C@@H](C)CC)C(=O)N(C)CC(=O)N(C)[C@H]3C/C=C\CCN(C3=O)[C@@H](Cc3ccc(C(F)(F)F)cc3)C(=O)N(C)CC(=O)N[C@@H](CCc3ccc(C(F)(F)F)c(Cl)c3)C(=O)N2C1 [PP1749] | A (a compound having 10 or more and less than 20 is denoted as A) | A (a compound having 10 or more and less than 20 is denoted as A) |
| 9.96 | 18.1 | CCCN(C)C(=O)[C@@H]1CC(=O)N(C)[C@@H](CCOC)C(=O)N[C@@H]([C@@H](C)CC)C(=O)N(C)CC(=O)N(C)[C@H]2C/C=C\CCN(C2=O)[C@@H](Cc2ccc(C(F)(F)F)cc2)C(=O)N(C)CC(=O)N[C@@H](CCc2ccc(C(F)(F)F)c(OC)c2)C(=O)N2C[C@@H](C)C[C@H]2C(=O)NC2(CC(C)(C)C2)C(=O)N(C)[C@@H](C2CCCC2)C(=O)N1C [PP2001] | A (a compound having 10 or more and less than 20 is denoted as A) | A (a compound having 10 or more and less than 20 is denoted as A) |
| 10.33 | 2.2 | CCO[C@@H]1C[C@H]2C(=O)NC3(CC(C)(C)C3)C(=O)N(C)[C@@H](C3CCCC3)C(=O)N(C)[C@H](C(=O)N(C)C)CC(=O)N(C)[C@@H](CC(C)C)C(=O)N[C@@H]([C@@H](C)CC)C(=O)N(C)CC(=O)N(C)[C@H]3C/C=C\CCN(C3=O)[C@@H](Cc3ccc(C(F)(F)F)cc3)C(=O)N(C)CC(=O)N[C@@H](CCc3ccc(C(F)(F)F)c(Cl)c3)C(=O)N2C1 [PP1751] | A (a compound having 10 or more and less than 20 is denoted as A) | A (a compound having 10 or more and less than 20 is denoted as A) |
